Results as given in patent US12138256B2, “Treatment of cardiopulmonary disorders” (Bayer Aktiengesellschaft, priority 2021, dated 2024).
Values joined by “and” are separate entries in the source; they are usually repeats but may differ in a detail not shown here. Equal entries are not always repeated.

How the values were obtained:
[1] = Protein binding via Transil assay, rat plasma; type: in vitro ADME; settings: Rat Wistar plasma, Transil assay
Text: The distribution of a test substance between Transil® (phosphatidylcholine lipid bilayers immobilized on silica beads) and plasma is a characteristic feature of any pharmaceutical compound and is dependent on its extent of binding to plasma proteins. By comparing the distribution between Transil® and buffer with the distribution between Transil® and plasma of any species of interest, the unbound fraction in the plasma of the respective animal species can be calculated in vitro. The respective plasma and buffer concentrations were determined via a radioactivity analysis. A detailed description of the method and its validation was published by Schuhmacher et al. (2).

[2] = system: hypoxia induced PAP increase in conscious dogs; test: Haemodynamics in conscious hypoxia challenged dogs (C-2.2); type: in vivo, dog; parameters: PAP, absolute values for each animal: unit: mmHg; settings: for mPAP decrease during Hypoxia, each animal / mPAP decrease during Hypoxia, mean +/− SEM: n = 3
Experimental: Experiments were carried out in anesthetized Göttingen minipigs, anesthetized rats and conscious, telemetrically instrumented dogs. Acute pulmonary hypertension was induced for example by infusion of a thromboxane A2 analogon, by acute hypoxia treatment or hypoxia treatment over a number of weeks and/or by administration of monocrotaline. Test substances were applied via nebulization using the Nebutec® or Aeroneb® Pro nebulizer system, and/or by means of powder and/or solution applicators for experimental intratracheal administration (Liquid MicroSprayer®, Dry Powder Insufflator™, MicroSprayer®, Penn-Century Inc., Wyndmoor, PA, USA) or after solid nebulization inserted into the inspiration arm of the ventilation. Compounds were employed as solids or solutions depending on the molecular structure and the technical possibility depending on the experiment. The haemodynamic signals were recorded and evaluated by means of pressure transducers/amplifiers (Combitransducer B. Braun, Melsungen, Germany or CardioMEMS Inc., Atlanta, GA, USA) and Ponemah® or CardioMems® as data aquisition software. After long-term experiments (for example monocrotaline rat), it is also possible to carry out a histological evaluation.
We evaluated the lung-selectivity and duration of effects of comparative example 11 under conscious conditions, in another species, and under a more physiological stimulus for PAP increase. Dogs were exposed to hypoxia for 30 minutes to induce a hypoxia-mediated PAP increase and comparative example 11 (100 μg/kg nominal dose) was applied by inhalation 1, 5, 12, 16 and 24 hours before hypoxia.
The hypoxic dog model was also used to compare different drug candidates wrt duration of action under conscious conditions.

[3] = system: thromboxane analog U46619 induced PAH in minipigs; test: PAH minipig model: comparison with and on top of standard of care (bosentan, sildenafil, riociguat); type: in vivo, Göttingen minipig; settings: for BP decrease % / PAP decrease %: % change per animal
Text: Efficacy of inhaled comparative example 11 was compared with systemically applied bosentan, sildenafil and riociguat (see FIG. 53a) in the PAH minipig model. […] Therefore inhaled application of comparative example 11 offers clear benefits as systemic effects are avoided, compared to standard of care.

[4] = system: anesthetized PAH minipigs; test: PAH minipig model: intratracheal application of dry powder formulations and different hydrates (PennCentury insufflator); type: in vivo, Göttingen minipig; settings: intratracheal lactose formulation; lower doses not applicable
Text: After characterization of the effects of comparative example 11 after nebulization of compound solutions, in a further step the effects of crystalline forms of comparative example 11, e.g. sesquihydrate, e.g. example 6e on PAP and BP after inhaled application of different dry powder lactose formulations (table C2.1.8) were studied in anesthetized PAH minipigs.
As reference pure Lactose vehicle was applied in the beginning of each experiment.

[5] = 100 μg/kg nominal dose inhaled, 1-2 h post inhalation
[6] = 100 μg/kg nominal dose inhaled, 5-6 h post inhalation
[7] = 100 μg/kg nominal dose inhaled, 12-13 h post inhalation
[8] = 100 μg/kg nominal dose inhaled, 16-17 h post inhalation
[9] = 100 μg/kg nominal dose inhaled, 24-25 h post inhalation
[10] = 30 μg/kg inhaled on top of Bosentan 1 mg/kg
[11] = 30 μg/kg inhaled on top of Riociguat 3 μg/kg/h
[12] = 30 μg/kg inhaled on top of Sildenafil 300 μg/kg/h
[13] = 30 μg/kg nominal dose inhaled, alone

With `O=C(O)c1ccc(CCN(CCc2ccccc2OCc2ccc(-c3ccc(C(F)(F)F)cc3)cc2Cl)[C@H]2CCCc3nc(C(=O)O)ccc32)cc1` [comparative example 11, (5S)-5-{[2-(4-carboxyphenyl)ethyl][2-(2-{[3-chloro-4′-(trifluoromethyl)[biphenyl]-4-yl]methoxy}phenyl)ethyl]amino}-5,6,7,8-tetrahydroquinoline-2-carboxylic acid] the fraction unbound [1] was 0.00224, the “effects on HR” value ([2]; 100 μg/kg nominal dose inhaled) was “No effects on HR” and the “PAP, absolute values for each animal” value ([2]; 100 μg/kg nominal dose inhaled 1 h before hypoxia, time 4 min) was 10 and 13 and 8. The “PAP, absolute values for each animal” value ([2]; 100 μg/kg nominal dose inhaled 1 h before hypoxia, time 6 min) was 12 and 13 and 8, the “PAP, absolute values for each animal” value ([2]; 100 μg/kg nominal dose inhaled 1 h before hypoxia, time 8 min) was 10 and 12 and 9 and the “PAP, absolute values for each animal” value ([2]; 100 μg/kg nominal dose inhaled 16 h before hypoxia, time 22 min) was 23 (2×) and 12. For the same compound, the “PAP, absolute values for each animal” value ([2]; 100 μg/kg nominal dose inhaled 16 h before hypoxia, time 24 min) was 21 and 27 and 14, the “PAP, absolute values for each animal” value ([2]; 100 μg/kg nominal dose inhaled 16 h before hypoxia, time 26 min) was 23 and 24 and 12 and the “PAP, absolute values for each animal” value ([2]; 100 μg/kg nominal dose inhaled 16 h before hypoxia, time 28 min) was 21 and 25 and 15. For the same compound, the “PAP, absolute values for each animal” value ([2]; 100 μg/kg nominal dose inhaled 16 h before hypoxia, time 30 min) was 21 and 23 and 14, the “PAP, absolute values for each animal” value ([2]; 100 μg/kg nominal dose inhaled 16 h before hypoxia, time 32 min) was 18 and 26 and 16 and the “PAP, absolute values for each animal” value ([2]; 100 μg/kg nominal dose inhaled 16 h before hypoxia, time 34 min) was 18 and 28 and 15. For the same compound, the “PAP, absolute values for each animal” value ([2]; 100 μg/kg nominal dose inhaled 16 h before hypoxia, time 36 min) was 17 and 25 and 18, the “PAP, absolute values for each animal” value ([2]; 100 μg/kg nominal dose inhaled 16 h before hypoxia, time 38 min) was 18 and 27 and 17 and the “PAP, absolute values for each animal” value ([2]; 100 μg/kg nominal dose inhaled 16 h before hypoxia, time 40 min) was 17 (2×) and 28. The “PAP, absolute values for each animal” value ([2]; 100 μg/kg nominal dose inhaled 16 h before hypoxia, time 42 min) was 9 and 19 and 13, the “PAP, absolute values for each animal” value ([2]; 100 μg/kg nominal dose inhaled 16 h before hypoxia, time 44 min) was 7 and 18 and 9 and the “PAP, absolute values for each animal” value ([2]; 100 μg/kg nominal dose inhaled 16 h before hypoxia, time 46 min) was 7 and 18 and 6. For the same compound, the “PAP, absolute values for each animal” value ([2]; 100 μg/kg nominal dose inhaled 16 h before hypoxia, time 48 min) was 6 and 16 and 9, the “PAP, absolute values for each animal” value ([2]; 100 μg/kg nominal dose inhaled 16 h before hypoxia, time 50 min) was 7 and 15 and 8 and the “PAP, absolute values for each animal” value ([2]; 100 μg/kg nominal dose inhaled 24 h before hypoxia, time 0 min) was 10 and 15 (2×). The “PAP, absolute values for each animal” value ([2]; 100 μg/kg nominal dose inhaled 24 h before hypoxia, time 2 min) was 9 and 14 and 12, the “PAP, absolute values for each animal” value ([2]; 100 μg/kg nominal dose inhaled 24 h before hypoxia, time 4 min) was 8 and 14 and 10 and the “PAP, absolute values for each animal” value ([2]; 100 μg/kg nominal dose inhaled 24 h before hypoxia, time 6 min) was 8 and 16 and 11. The “PAP, absolute values for each animal” value ([2]; 100 μg/kg nominal dose inhaled 24 h before hypoxia, time 8 min) was 8 and 14 and 9, the “PAP, absolute values for each animal” value ([2]; 100 μg/kg nominal dose inhaled 24 h before hypoxia, time 10 min) was 9 and 11 and 10 and the “PAP, absolute values for each animal” value ([2]; 100 μg/kg nominal dose inhaled 24 h before hypoxia, time 12 min) was 20 (2×) and 15. For the same compound, the “PAP, absolute values for each animal” value ([2]; 100 μg/kg nominal dose inhaled 24 h before hypoxia, time 14 min) was 23 and 22 and 19, the “PAP, absolute values for each animal” value ([2]; 100 μg/kg nominal dose inhaled 24 h before hypoxia, time 16 min) was 27 and 24 and 22 and the “PAP, absolute values for each animal” value ([2]; 100 μg/kg nominal dose inhaled 24 h before hypoxia, time 18 min) was 27 and 26 and 20. The “PAP, absolute values for each animal” value ([2]; 100 μg/kg nominal dose inhaled 24 h before hypoxia, time 20 min) was 29 (2×) and 23, the “PAP, absolute values for each animal” value ([2]; 100 μg/kg nominal dose inhaled 24 h before hypoxia, time 22 min) was 27 and 30 and 22 and the “PAP, absolute values for each animal” value ([2]; 100 μg/kg nominal dose inhaled 24 h before hypoxia, time 24 min) was 26 and 28 and 22. For the same compound, the “PAP, absolute values for each animal” value ([2]; 100 μg/kg nominal dose inhaled 24 h before hypoxia, time 26 min) was 24 and 29 and 17, the “PAP, absolute values for each animal” value ([2]; 100 μg/kg nominal dose inhaled 24 h before hypoxia, time 28 min) was 26 and 29 and 20 and the “PAP, absolute values for each animal” value ([2]; 100 μg/kg nominal dose inhaled 24 h before hypoxia, time 30 min) was 24. The “efficacy (PAP decrease), head to head” value ([2]; 100 μg/kg nominal dose inhaled, up to 6 hrs after inhalation) was “comparable efficacy”, the “mPAP decrease during Hypoxia, each animal” value [2, 5] was −12.44 mmHg and −11.44 mmHg and −10.13 mmHg and the “mPAP decrease during Hypoxia, mean +/− SEM” value [2, 5] was −11.33 ± 0.67 mmHg. For the same compound, the “mPAP decrease during Hypoxia, each animal” value [2, 6] was −16.13 mmHg and −5.44 mmHg and −8.75 mmHg, the “mPAP decrease during Hypoxia, mean +/− SEM” value [2, 6] was −10.10 ± 3.16 mmHg and the “mPAP decrease during Hypoxia, each animal” value [2, 7] was −3.44 mmHg and −4.81 mmHg and −1.69 mmHg. For the same compound, the “mPAP decrease during Hypoxia, mean +/− SEM” value [2, 7] was −3.31 ± 0.90 mmHg, the “mPAP decrease during Hypoxia, each animal” value [2, 8] was −2.25 mmHg and −4.25 mmHg and −3.00 mmHg and the “mPAP decrease during Hypoxia, mean +/− SEM” value [2, 8] was −3.17 ± 0.58 mmHg. The “mPAP decrease during Hypoxia, each animal” value [2, 9] was −0.13 mmHg and −1.94 mmHg and −0.50 mmHg, the “mPAP decrease during Hypoxia, mean +/− SEM” value [2, 9] was −0.85 ± 0.55 mmHg and the “PAP decrease, head to head” value ([2]; 100 μg/kg nominal dose, 12 and 16 hrs after inhalation) was “more effective PAP decrease for comparative example 11 compared to comparative example 4”. For the same compound, the BP decrease % [3, 10] was −12.8% and 3.6%, the PAP decrease % [3, 10] was −29.7% and −27.1% and the BP decrease % [3, 11] was 3.1% and −1.1% and 11.5%. For the same compound, the PAP decrease % [3, 11] was −29.7% and −24.2% and −26.3%, the BP decrease % [3, 12] was −6.9% and −6.4% and 1.2% and the PAP decrease % [3, 12] was −33.6% and −36.9% and −42.8%. For the same compound, the BP decrease % [3, 13] was −6.8% and 1.6% and 3.5%, the PAP decrease % [3, 13] was −19.9% and −22.8% and −21.7% and the BP decrease % ([3]; 100 μg/kg nominal dose inhaled) was −4.5% and −9.9% and −3.1%. The PAP decrease % ([3]; 100 μg/kg nominal dose inhaled) was −33.1% and −45.1% and −38.2%, the “efficacy regarding PAP on top of bosentan, sildenafil or riociguat” value ([3]; comparative example 11 30 μg/kg inhaled) was “maintained its efficacy regarding PAP” and the “MED (dry powder)” value [4] was less than 7.5 µg/kg.
